Normal melting temperature data for one compound are collected here from the NIST ThermoML archive (doi:10.1016/j.jct.2007.10.006).

For the data set the following is noted: Crystal; thermal analyzer.

± gives the expanded uncertainty stated by the source.

`Oc1ccc(/C=C/c2cc(O)cc(O)c2)cc1` [5-[(1E)-2-(4-hydroxyphenyl)-ethenyl]-1,3-benzenediol]: the Normal melting temperature was determined as 268.1 ± 1 °C.
